Source: patent US11066414B2, “Cot modulators and methods of use thereof” (Gilead Sciences, Inc., priority 2015, dated 2021)
Where two headings read alike, the source gives them in different places.

Legend:
Human Cot = Human Cot (Homo sapiens (Human), UniProt P41279); assay: High Throughput Cot Biochemical Assay
TNFα = assay: Cot Monocyte TNFα Cell Based Assay
[1] = IC50 HTRF, Cot HTRF (TR-FRET) biochemical assay
[2] = Homo sapiens, Monocyte, read-out: EC50 TNF, LPS-stimulated human monocytes, TNFα
[3] = read-out: IC50 HTRF, Cot HTRF (TR-FRET) biochemical assay
[4] = read-out: EC50 TNF, LPS-stimulated human monocytes, TNFα
[5] = IC50 HTRF, Cot HTRF (TR-FRET KinEASE) biochemical assay, 400 μM ATP
[6] = Homo sapiens, Monocyte, read-out: EC50 TNF, LPS-stimulated human monocytes, TNFα TR-FRET

Chain of Human Cot (P41279 30-397): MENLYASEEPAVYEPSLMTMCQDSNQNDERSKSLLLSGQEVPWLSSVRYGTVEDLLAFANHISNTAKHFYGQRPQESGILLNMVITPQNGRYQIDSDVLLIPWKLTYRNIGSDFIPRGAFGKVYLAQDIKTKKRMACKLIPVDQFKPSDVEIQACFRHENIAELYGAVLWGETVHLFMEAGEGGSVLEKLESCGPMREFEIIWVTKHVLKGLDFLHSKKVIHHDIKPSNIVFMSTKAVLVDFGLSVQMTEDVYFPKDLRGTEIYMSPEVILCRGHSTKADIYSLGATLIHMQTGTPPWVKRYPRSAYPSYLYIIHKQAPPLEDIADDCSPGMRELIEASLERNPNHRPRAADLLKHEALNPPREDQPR

Row | Compound | IC50 (Human Cot; [1]) [nM] | EC50 (TNFα; [2]) [nM] | further results
1 | Cn1ccc2c([C@H](Nc3cc(Cl)c4ncc(C#N)c(NCC(C)(C)C(F)(F)F)c4c3)c3cn(C4(C)CC4)nn3)cccc2c1=O [Example 781, (S)-8-chloro-6-(((2-methyl-1-oxo-1,2-dihydroiso-quinolin-5-yl)(1-(1-methylcyclopropyl)-1H-1,2,3-triazol-4-yl)methyl)amino)-4-((3,3,3-trifluoro-2,2-dimethylpropyl)amino)quinoline-3-carbonitrile] |  |  | IC50 (Human Cot; [3]): 2 nM; EC50 (TNFα; [4]): 22 nM
2 | C[C@@H](CF)n1cc([C@@H](Nc2cc(Cl)c3ncc(C#N)c(NCC(C)(C)C(F)(F)F)c3c2)c2cccc3c(=O)n(C)ccc23)nn1 [Example 784, 8-chloro-6-(((S)-(1-((S)-1-fluoropropan-2-yl)-1H-1,2,3-triazol-4-yl)(2-methyl-1-oxo-1,2-dihydroiso-quinolin-5-yl)methyl)amino)-4-((3,3,3-trifluoro-2,2-dimethylpropyl)amino)quinoline-3-carbonitrile] |  |  | IC50 (Human Cot; [3]): 3 nM; EC50 (TNFα; [4]): 51 nM
3 | Cc1nc(F)ccc1C(Nc1cc(Cl)c2ncc(C#N)c(NCC(C)(C)C)c2c1)c1cn(C)nn1 (stereo not drawn) [Example 791, 8-chloro-6-(((6-fluoro-2-methylpyridin-3-yl)(1-methyl-1H-1,2,3-triazol-4-yl)methyl)amino)-4-(neopentylamino)quinoline-3-carbonitrile] | 22 | 242 | 
4 | Cc1nc(F)ccc1[C@H](Nc1cc(Cl)c2ncc(C#N)c(NCC3(C)COC3)c2c1)c1cn(C2(C(F)(F)F)CC2)nn1 [Example 792, (S)-8-chloro-6-(((6-fluoro-2-methylpyridin-3-yl)(1-(1-(trifluoromethyl)-cyclopropyl)-1H-1,2,3-triazol-4-yl)methyl)amino)-4-(((3-methyloxetan-3-yl)methyl)amino)quinoline-3-carbonitrile] | 89 | 843 | 
5 | CC(C)(CNc1c(C#N)cnc2c(Cl)cc(N[C@H](c3cn(C4(C5CC5)CC4)nn3)c3cccc4ncccc34)cc12)C(F)(F)F [Example 798, (S)-6-(((1-([1,1′-bi(cyclopropan)]-1-yl)-1H-1,2,3-triazol-4-yl)(quinolin-5-yl)methyl)amino)-8-chloro-4-((3,3,3-trifluoro-2,2-dimethylpropyl)amino)quinoline-3-carbonitrile] | 7 | 90 | 
6 | Cn1ccc2c([C@H](Nc3cc(Cl)c4ncc(C#N)c(NCC(C)(C)C)c4c3)c3cn(C4(C)CCC4)nn3)cccc2c1=O [Example 800, (S)-8-chloro-6-(((2-methyl-1-oxo-1,2-dihydroiso-quinolin-5-yl)(1-(1-methylcyclobutyl)-1H-1,2,3-triazol-4-yl)methyl)amino)-4-(neopentylamino)quinoline-3-carbonitrile] |  |  | IC50 (Human Cot; read-out: IC50 HTRF, Cot HTRF (TR-FRET KinEASE) biochemical assay, 400 μM ATP): 2 nM; EC50 (TNFα; read-out: EC50 TNF, LPS-stimulated human monocytes, TNFα TR-FRET): 25 nM
7 | CCC(C)n1cc([C@@H](Nc2cc(Cl)c3ncc(C#N)c(NCC(C)(C)C)c3c2)c2cccc3c(=O)n(C)ccc23)nn1 (stereo partly drawn) [Example 801, 6-(((1 S)-(1-(sec-butyl)-1H-1,2,3-triazol-4-yl)(2-methyl-1-oxo-1,2-dihydroisoquinolin-5-yl)methyl)amino)-8-chloro-4-(neopentylamino)quinoline-3-carbonitrile] |  |  | IC50 (Human Cot; [5]): 3 nM; EC50 (TNFα; [6]): 31 nM
8 | COC[C@H](C)n1cc([C@@H](Nc2cc(Cl)c3ncc(C#N)c(NCC(C)(C)C)c3c2)c2cccc3c(=O)n(C)ccc23)nn1 [Example 802, 8-chloro-6-(((S)-(1-((S)-1-methoxypropan-2-yl)-1H-1,2,3-triazol-4-yl)(2-methyl-1-oxo-1,2-dihydroisoquinolin-5-yl)methyl)amino)-4-(neopentylamino)quinoline-3-carbonitrile] |  |  | IC50 (Human Cot; [5]): 4 nM; EC50 (TNFα; [6]): 36 nM

Further molecules by falling IC50 (Human Cot; [1]), results first:

Row | IC50 (Human Cot; [1]) [nM] | EC50 (TNFα; [2]) [nM] | Compound | further results
9 | 5 | 52 | Cn1ccc2c([C@H](Nc3cc(Cl)c4ncc(C#N)c(NCC(C)(C)C(F)(F)F)c4c3)c3cn(C4(C(F)(F)F)CC4)nn3)cccc2c1=O [Example 780, (S)-8-chloro-6-(((2-methyl-1-oxo-1,2-dihydroisoquinolin-5-yl)(1-(1-(trifluoromethyl)-cyclopropyl)-1H-1,2,3-triazol-4-yl)methyl)amino)-4-((3,3,3-trifluoro-2,2-dimethylpropyl)amino)-quinoline-3-carbonitrile] | 
10 | 5 | 82 | Cn1cc([C@@H](Nc2cc(Cl)c3ncc(C#N)c(NCC(C)(C)C)c3c2)c2cccc3c(=O)n(C)ccc23)nn1 [Example 790, (S)-8-chloro-6-(((2-methyl-1-oxo-1,2-dihydroisoquinolin-5-yl)(1-methyl-1H-1,2,3-triazol-4-yl)methyl)amino)-4-(neopentylamino)quinoline-3-carbonitrile] | 
11 | 4 | 108 | CC(C)(C)CNc1c(C#N)cnc2c(Cl)cc(N[C@H](c3cn(C4(C(F)(F)F)CC4)nn3)c3cccc4c(=O)n(CC(F)F)ccc34)cc12 [Example 770, (S)-8-chloro-6-(((2-(2,2-difluoroethyl)-1-oxo-1,2-dihydroisoquinolin-5-yl)(1-(1-(trifluoromethyl)cyclopropyl)-1H-1,2,3-triazol-4-yl)methyl)amino)-4-(neopentylamino)quinoline-3-carbonitrile] | 
12 | 4 | 293 | CC(C)(C)CNc1c(C#N)cnc2c(Cl)cc(N[C@H](c3cn(C4(C(F)(F)F)CC4)nn3)c3cccc4c(=O)n(CC(F)(F)F)ccc34)cc12 [Example 771, (S)-8-chloro-4-(neopentylamino)-6-(((1-oxo-2-(2,2,2-trifluoroethyl)-1,2-dihydroisoquinolin-5-yl)(1-(1-(trifluoromethyl)-cyclopropyl)-1H-1,2,3-triazol-4-yl)methyl)amino)quinoline-3-carbonitrile] | 
13 | 4 | 30 | C[C@@H](CF)n1cc([C@@H](Nc2cc(Cl)c3ncc(C#N)c(NCC(C)(C)C)c3c2)c2cccc3c(=O)n(C)ccc23)nn1 [Example 778, 8-chloro-6-(((S)-(1-((S)-1-fluoropropan-2-yl)-1H-1,2,3-triazol-4-yl)(2-methyl-1-oxo-1,2-dihydroisoquinolin-5-yl)methyl)amino)-4-(neopentylamino)quinoline-3-carbonitrile] | 
14 | 4 | 46 | CC(C)(CNc1c(C#N)cnc2c(Cl)cc(N[C@H](c3cn(C45CC(C4)C5)nn3)c3cccc4ncccc34)cc12)C(F)(F)F [Example 799, (S)-6-(((1-(bicyclo[1.1.1]pentan-1-yl)-1H-1,2,3-triazol-4-yl)(quinolin-5-yl)methyl)amino)-8-chloro-4-((3,3,3-trifluoro-2,2-dimethylpropyl)amino)quinoline-3-carbonitrile] | 
15 | 3 | 27 | Cn1ccc2c([C@H](Nc3cc(Cl)c4ncc(C#N)c(NCC(C)(C)C)c4c3)c3cn(C4(CF)CC4)nn3)cccc2c1=O [Example 775, (S)-8-chloro-6-(((1-(1-(fluoromethyl)cyclopropyl)-1H-1,2,3-triazol-4-yl)(2-methyl-1-oxo-1,2-dihydroisoquinolin-5-yl)methyl)amino)-4-(neopentylamino)quinoline-3-carbonitrile] | 
16 | 3 | 26 | Cn1ccc2c([C@H](Nc3cc(Cl)c4ncc(C#N)c(NCC(C)(C)C)c4c3)c3cn(C4(C5CC5)CC4)nn3)cccc2c1=O [Example 779, (S)-6-(((1-([1,1′-bi(cyclopropan)]-1-yl)-1H-1,2,3-triazol-4-yl)(2-methyl-1-oxo-1,2-dihydroisoquinolin-5-yl)methyl)amino)-8-chloro-4-(neopentylamino)quinoline-3-carbonitrile] | 
17 | 2 | 33 | CC(C)n1ccc2c([C@H](Nc3cc(Cl)c4ncc(C#N)c(NCC(C)(C)C)c4c3)c3cn(C45CC(C4)C5)nn3)cccc2c1=O [Example 772, (S)-6-(((1-(bicyclo[1.1.1]pentan-1-yl)-1H-1,2,3-triazol-4-yl)(2-isopropyl-1-oxo-1,2-dihydroisoquinolin-5-yl)methyl)amino)-8-chloro-4-(neopentylamino)quinoline-3-carbonitrile] | 
18 | 2 | 35 | CCn1ccc2c([C@H](Nc3cc(Cl)c4ncc(C#N)c(NCC(C)(C)C)c4c3)c3cn(C4(C)CC4)nn3)cccc2c1=O [Example 773, (S)-8-chloro-6-(((2-ethyl-1-oxo-1,2-dihydroisoquinolin-5-yl)(1-(1-methylcyclopropyl)-1H-1,2,3-triazol-4-yl)methyl)amino)-4-(neopentylamino)quinoline-3-carbonitrile] | 
19 | 2 | 24 | Cn1ccc2c([C@H](Nc3cc(Cl)c4ncc(C#N)c(NCC(C)(C)C)c4c3)c3cn(C4(C)CC4)nn3)cccc2c1=O [Example 776, (S)-8-chloro-6-(((2-methyl-1-oxo-1,2-dihydroisoquinolin-5-yl)(1-(1-methylcyclopropyl)-1H-1,2,3-triazol-4-yl)methyl)amino)-4-(neopentylamino)quinoline-3-carbonitrile] | 
20 | 2 | 65 | CC(C)(C)CNc1c(C#N)cnc2c(Cl)cc(N[C@H](c3cn(C45CC(C4)C5)nn3)c3cccc4c(=O)[nH]ccc34)cc12 [Example 787, (S)-6-(((1-(bicyclo[1.1.1]pentan-1-yl)-1H-1,2,3-triazol-4-yl)(1-oxo-1,2-dihydroisoquinolin-5-yl)methyl)amino)-8-chloro-4-(neopentylamino)quinoline-3-carbonitrile] | 
21 | 2 | 31 | Cn1ccc2c([C@H](Nc3cc(Cl)c4ncc(C#N)c(NCC(C)(C)C)c4c3)c3cn(C4CCC4)nn3)cccc2c1=O [Example 796, (S)-8-chloro-6-(((1-cyclobutyl-1H-1,2,3-triazol-4-yl)(2-methyl-1-oxo-1,2-dihydroisoquinolin-5-yl)methyl)amino)-4-(neopentylamino)quinoline-3-carbonitrile] | 
